Values belong to the compound of their own block, whether it stands above or below them.
Legend:
[1] = test system: lime enzyme preparation; assay: Effects of common enzyme cofactors on the lime enzyme; format: biochemical, Citrus aurantifolia; conditions: 1 mM final concentration
Experimental: (§1) For the orange enzyme preparation, however, 1mM ATP inhibited the activity by almost 50%.

[2] = test system: orange enzyme preparation; assay: Effects of common enzyme cofactors on the orange enzyme; format: biochemical, Citrus sinensis; conditions: 1mM
Experimental: as §1

[3] = test system: lime enzyme preparation; assay: Effect of common blood components on the lime enzyme reaction; format: biochemical, Citrus aurantifolia
Experimental: The bilirubin-degrading assay as described in Example 2 was carried out using a lime enzyme preparation obtained as described in Example 1. Urate (at either 1.2 mM or 297 µM) and creatinine (88.4 and 176.8 µM) in a serum-based matrix had no effect on either the rate or extent of bilirubin degradation by the Citrus enzyme. […] Tests that are interfered severely by bilirubin include e.g. uric acid, cholesterol, glucose, triglycerides, to mention just a few (See for example, Spain and Wu, Clin. Chem. 32:518, 1986). Also, in practice, one will use much higher levels of the enzyme than those used here (5-10 µL/assay, representing about 0.1-0.2 mg protein). In such cases, the effects on initial rates will most likely be overcome or reduced to well within tolerable limits.

[4] = test system: orange enzyme preparation; assay: Effect of common blood components on the orange enzyme reaction; format: biochemical, Citrus sinensis
Experimental: The bilirubin-degrading assay as described under (A) was carried out using an orange enzyme preparation obtained as described in Example 1. […] It is to be noted that the amount of enzyme used for removing interferences can be increased, if desired, to speed up the process. […]

Structure (SMILES): Nc1ncnc2c1ncn2[C@@H]1O[C@H](COP(=O)(O)O)[C@@H](O)[C@H]1O [AMP]
effect on the enzyme in the normal bilirubin-degrading assay [1]: no demonstrable effect

Structure (SMILES): Nc1ncnc2c1ncn2[C@@H]1O[C@H](COP(=O)(O)OP(=O)(O)OP(=O)(O)O)[C@@H](O)[C@H]1O [ATP]
activity inhibited [2]: ~50%
effect on the enzyme in the normal bilirubin-degrading assay [1]: no demonstrable effect

Structure (SMILES): Oc1nc(O)c2nc(O)[nH]c2n1 [Urate]
effect on the rate or extent of bilirubin degradation ([3]; at either 1.2 mM or 297 µM in a serum-based matrix): no effect

Structure (SMILES): CC(C)CCC[C@@H](C)[C@H]1CC[C@H]2[C@@H]3CC=C4C[C@@H](O)CC[C@]4(C)[C@H]3CC[C@]12C [cholesterol]
effect on reaction extent ([3]; 30-40 min. incubation, serum-like matrix): not significantly affected
slow down of the initial rate of the enzymic reaction on unconjugated bilirubin ([3]; elevated levels (cholesterol e.g. 11 mM or 400 mg/dL)): 10-20%
overall yield of the enzymic reaction, of the control value ([4]; elevated cholesterol): 90-95%
initial rate retarded ([4]; elevated levels, for example at 10mM): 10-20%

Structure (SMILES): NC(N)=O [urea]
effect on the reaction of the orange enzyme ([4]; water-soluble serum analytes): largely unaffected

More lines, now with the values ahead:

effect on the enzyme in the normal bilirubin-degrading assay [1]: no demonstrable effect
Structure (SMILES): Nc1ncnc2c1ncn2[C@@H]1O[C@H](COP(=O)(O)OP(=O)(O)O)[C@@H](O)[C@H]1O [ADP]

effect on the enzyme in the normal bilirubin-degrading assay [1]: no demonstrable effect
Structure (SMILES): NC(=O)C1=CN([C@@H]2O[C@H](COP(=O)(O)OP(=O)(O)OC[C@H]3O[C@@H](n4cnc5c(N)ncnc54)[C@H](O)[C@@H]3O)[C@@H](O)[C@H]2O)C=CC1 [NADH]

effect on the enzyme in the normal bilirubin-degrading assay [1]: no demonstrable effect
Structure (SMILES): NC(=O)c1ccc[n+]([C@@H]2O[C@H](COP(=O)([O-])OP(=O)(O)OC[C@H]3O[C@@H](n4cnc5c(N)ncnc54)[C@H](O)[C@@H]3O)[C@@H](O)[C@H]2O)c1 [NAD]

Source: patent EP0320095A2, “Bilirubin degrading enzymes” (HEALTH & RESEARCH SERVICES INC., priority 1987, dated 1989)
